Patent US20220064138A1, “MACROLIDE BREFELDIN A ESTER DERIVATIVES AND USE THEREOF” (OCEAN UNIVERSITY OF CHINA, priority 2019, published 2022)
In brackets after ≈: the same amount, converted by molar mass.

Columns and labels:
[1] = tested on: human gastric cancer MKN-45 cells; experiment: Cell proliferation assay (CCK-8); type: cell-based; conditions: MKN-45, 72 h
Excerpt: (§1) CCK-8 method: The CCK-8 method is a highly sensitive, non-radioactive colorimetric assay for the determination of the number of viable cells in cell proliferation or cytotoxicity assays. The orange formazan dye produced by the bioreduction of CCK-8 by intracellular dehydrogenase is soluble in the cell culture medium, and the amount of formazan dye produced is proportional to the number of living cells. The kit used in this method is the tetrazolium salt-WST-8 (2-(2-methoxy-4-nitrophenyl)-3-(4-nitrophenyl)-5-(2,4-disulfophenyl)-2H-tetrazolium monosodium salt) developed by Dojindo Chemical Research Institute (Dojindo), which is capable of being reduced to a water-soluble formazan dye in the presence of the electronic carrier 1-Methoxy PMS.
(§2) Human cervical cancer Hela cells, pancreatic cancer PANC-1 cells, esophageal cancer Eca-109 cells, human leukemia K562 cells, human lung cancer A549 cells, human liver cancer HepG2 cells, human gastric cancer MKN-45 cells, human breast cancer MCF7 cells were cultured in DMEM medium containing 10% FBS (fetal bovine serum), 100 U/mL penicillin and 100 μg/ml streptomycin. Hepatocellular carcinoma cells Bel-7402 were cultured in RPMI-1640 medium containing 10% FBS (fetal bovine serum), 100 U/ml penicillin and 100 μg/ml streptomycin. All cells were placed in a cell culture incubator at 37° C. with 5% CO2. Cells fluid was changed every 3-5 days, and after 80% cell fusion, trypsin digestion and passaging were performed to keep the cells in good logarithmic growth phase.
(§3) All the samples to be tested were dissolved in DMSO.
(§4) Cells in logarithmic growth phase were inoculated in 96-well plates with 5000 cells/well respectively, and after 24 h of incubation, samples were added (final concentrations as shown in the table), and biplicate wells were set up for each sample. The amount of solvent of DMSO was not higher than 2‰. After 72 h, 10 μL of CCK-8 solution was added to each well and incubated for 1.5˜3 h at 37° C. The OD value at 450 nm was measured on an plate reader.
(§5) Inhibition rate (%)=(1−[(OD450 dosed well−OD450 blank well)/(OD450 control well−OD450 blank well)])×100%
(§6) The fitted IC50 values were calculated using the log (inhibitor) vs. response-Variable slop analysis method in GraphPad Prism software.

[2] = tested on: esophageal cancer Eca-109 cells; experiment: Cell proliferation assay (CCK-8); type: cell-based; conditions: Homo sapiens, Eca-109, 72 h
Excerpt: as §1, §2, §3, §4, §5, §6

[3] = tested on: human lung cancer A549 cells; experiment: Cell proliferation assay (CCK-8); type: cell-based; conditions: A549, 72 h
Excerpt: as §1, §2, §3, §4, §5, §6

[4] = tested on: human breast cancer MCF7 cells; experiment: Cell proliferation assay (CCK-8); type: cell-based; conditions: MCF7, 72 h
Excerpt: as §1, §2, §3, §4, §5, §6

[5] = tested on: pancreatic cancer PANC-1 cells; experiment: Cell proliferation assay (CCK-8); type: cell-based; conditions: Homo sapiens, PANC-1, 72 h
Excerpt: as §1, §2, §3, §4, §5, §6

[6] = tested on: human leukemia K562 cells; experiment: Cell proliferation assay (CCK-8); type: cell-based; conditions: K562, 72 h
Excerpt: as §1, §2, §3, §4, §5, §6

[7] = tested on: Human cervical cancer Hela cells; experiment: Cell proliferation assay (CCK-8); type: cell-based; conditions: 72 h
Excerpt: as §1, §2, §3, §4, §5, §6

[8] = tested on: human liver cancer HepG2 cells; experiment: Cell proliferation assay (CCK-8); type: cell-based; conditions: HepG2, 72 h
Excerpt: as §1, §2, §3, §4, §5, §6

Kunming breed mice = experiment: Toxicity test after intraperitoneal administration to mice; type: in vivo; conditions: 14 d; for Deaths: high and low doses (BFA effective amount conversion), ip., mice; for Mental condition of the animals after administration / Results of anatomy: abnormality in organs: male, Kunming, mouse, in vivo, ip
Description: Objective: Observation of toxic effects of compounds after intraperitoneally administration (ip.) to mice
1) Agents: Compounds disclosed herein were formulated to a suitable concentration.
2) Animals: Kunming breed mice, weight 18-22 g, male. Provided by Jinan Pengyue Laboratory Animal Breeding Co., Ltd. Animal license number: SCXK (Shandong 20140007)
Method: Kunming breed mice, were randomly grouped by weight, 6 mice per group, namely normal control group, BFA high and low dose groups (100 mg/kg and 50 mg/kg, respectively), and high and low dose groups of some compounds disclosed herein (BFA effective amount conversion). […] After 14 d of continuous administration, all the animals were weighed, and the animals were executed to observe whether there were any abnormalities in the organs.

[9] = Solubility test (shaking 24 h at 37° C., HPLC)
Method: Methods: Excess BFA and the compounds disclosed herein were added to 10 mL of three solvents, methanol, acetone and 5% DMSO+95% H2O, respectively, and shaken on a shaker at 37° C. at 100 r/min for 24 h. After 24 h, the samples were centrifuged at 15 000 r/min for 15 min to remove the undissolved compounds. The supernatant was filtered using a 0.45 μm membrane filter. The supernatant was appropriately diluted with methanol and contents of the compounds were determined by HPLC method to calculate the solubility.

SMILES | IC50 [1] [µM] | IC50 [2] [µM] | IC50 [3] [µM] | IC50 [4] [µM] | IC50 [5] [µM] | IC50 [6] [µM] | IC50 [7] [µM] | IC50 [8] [µM] | Deaths (Kunming breed mice) | Mental condition of the animals after administration (Kunming breed mice) | Results of anatomy: abnormality in organs (Kunming breed mice) | solubility at 24 h ([9]; 5% DMSO + 95% H2O) [mg/mL] | solubility at 24 h ([9]; acetone) [mg/mL] | solubility at 24 h ([9]; methanol) [mg/mL]
C[C@H]1CCC/C=C/[C@@H]2C[C@H](O)C[C@H]2[C@H](OC(=O)/C=C/c2cccnc2)/C=C/C(=O)O1 [Compound 16b] | 0.1 to 1 | 0.1 to 1 | 0.1 to 1 | 0.1 to 1 | < 0.1 | 0.1 to 1 | 0.1 to 1 | < 0.1 | no deaths | good mental condition | no significant abnormality in all organs | – | – | –
C[C@H]1CCC/C=C/[C@@H]2C[C@H](OC(=O)/C=C/c3ccc(N(C)C)cc3)C[C@H]2[C@H](O)/C=C/C(=O)O1 [Compound 10a, 7-O-(4-dimethylaminocinnamic acid)acyl BFA] | 0.1 to 1 | 1 to 10 | 0.1 to 1 | 0.1 to 1 | 1 to 10 | 0.1 to 1 | 1 to 10 | 1 to 10 | no deaths | good mental condition | no significant abnormality in all organs | 0.75 ± 1.6 | 25.6 ± 1.74 (≈ 56.5 mM) | 25.3 ± 4.35 (≈ 55.7 mM)
C[C@H]1CCC/C=C/[C@@H]2C[C@H](O)C[C@H]2[C@H](OC(=O)/C=C/c2cccc(F)c2)/C=C/C(=O)O1 [Compound 1b, 4-O-(3-fluorocinnamic acid)acyl BFA] | 0.1 to 1 | 0.1 to 1 | 0.1 to 1 | 0.1 to 1 | 0.1 to 1 | 0.1 to 1 | 0.1 to 1 | 0.1 to 1 | no deaths | good mental condition | no significant abnormality in all organs | 0.32 ± 0.05 | 21 ± 1.42 (≈ 49.1 mM) | 21.1 ± 1.32 (≈ 49.3 mM)
C[C@H]1CCC/C=C/[C@@H]2C[C@H](OC(=O)/C=C/c3cccc(F)c3)C[C@H]2[C@H](OC(=O)/C=C/c2cccc(F)c2)/C=C/C(=O)O1 [Compound 1c, 4,7-O-bis(3-fluorocinnamic acid)acyl BFA] | 0.1 to 1 | 1 to 10 | 1 to 10 | 1 to 10 | 1 to 10 | 0.1 to 1 | 1 to 10 | 1 to 10 | no deaths | good mental condition | no significant abnormality in all organs | 0.2 ± 0.91 | 12.1 ± 0.91 (≈ 21.1 mM) | 12.2 ± 1.59 (≈ 21.2 mM)
C[C@H]1CCC/C=C/[C@@H]2C[C@H](O)C[C@H]2[C@H](OC(=O)/C=C/c2ccc(N(C)C)cc2)/C=C/C(=O)O1 [Compound 10b, 4-O-(4-dimethylaminocinnamic acid)acyl BFA] | 0.1 to 1 | 1 to 10 | 0.1 to 1 | 0.1 to 1 | 0.1 to 1 | 0.1 to 1 | 0.1 to 1 | 0.1 to 1 | no deaths | good mental condition | no significant abnormality in all organs | 0.72 ± 0.13 | 23.2 ± 1.32 (≈ 51.1 mM) | 24.2 ± 1.22 (≈ 53.3 mM)
C[C@H]1CCC/C=C/[C@@H]2C[C@H](OC(=O)/C=C/c3cccnc3)C[C@H]2[C@H](OC(=O)/C=C/c2cccnc2)/C=C/C(=O)O1 [Compound 16c] | 1 to 10 | 1 to 10 | 0.1 to 1 | 1 to 10 | 0.1 to 1 | 0.1 to 1 | 1 to 10 | 0.1 to 1 | no deaths | good mental condition | no significant abnormality in all organs | – | – | –
C[C@H]1CCC/C=C/[C@@H]2C[C@H](O)C[C@H]2[C@H](OC(=O)/C=C/c2cnc3ccccc3c2)/C=C/C(=O)O1 [Compound 17b] | 0.1 to 1 | 0.1 to 1 | 0.1 to 1 | 0.1 to 1 | < 0.1 | 0.1 to 1 | 0.1 to 1 | < 0.1 | – | – | – | – | – | –
